These results are taken from ChEMBL document CHEMBL3779890, “Novel prodrugs with a spontaneous cleavable guanidine moiety” (Bioorg Med Chem Lett, 2016).

The structures appear in SMILES notation. Values after ≈ are worked out from the molar mass of the structure shown.

Series [1] can be described thus: Prodrug conversion in PBS assessed as half life for 50% release of Quinine in pH 7.4 at 37 degC after 1 hr by ESI-mass spectrometry. The format is ADME. Particulars: buffer, pH 7.4, 1 h.
Series [2] can be described thus: Solubility of the compound in water at room temperature after 15 mins by HPLC analysis. The format is physicochemical.
Series [3] can be described thus: Stability of the compound in methanol-CH3CN at 4 degC after 1 month by HPLC analysis. It is filed as physicochemical. The settings on record: 730.5 h.
Series [4] in a line: Prodrug conversion in PBS assessed as half life for 50% release of Phenytoin in pH 7.4 at 37 degC after 1 hr by ESI-mass spectrometry. The format is ADME. The settings on record: buffer, pH 7.4, 1 h.
Series [5] is described as follows: Prodrug conversion in PBS assessed as half life for 50% release of Sulfathiazole in pH 7.4 at 37 degC after 1 hr by ESI-mass spectrometry. Particulars: buffer, pH 7.4, 1 h. It is filed as ADME.
A short description of series [6]: Prodrug conversion in PBS assessed as half life for 50% release of Quinine in pH 7.4 at 37 degC by ESI-mass spectrometry. The format is ADME. Particulars: buffer, TDE = time-dependent effect.
A short description of series [7]: Prodrug conversion in PBS assessed as half life for 50% release of 2-Aminobenzimidazole in pH 7.4 at 37 degC after 1 hr by ESI-mass spectrometry. It is filed as ADME. Particulars: buffer, pH 7.4, 1 h.
The nature of series [8]: Prodrug conversion in PBS assessed as half life for 50% release of ritonavir in pH 7.4 at 37 degC after 1 hr by ESI-mass spectrometry. Particulars: buffer, pH 7.4, 1 h. The format is ADME.

For `C=C[C@@H]1CN2CC[C@H]1C[C@H]2[C@H](OC(=O)CCNC(=N)N)c1ccnc2ccc(OC)cc12.O=C(O)C(F)(F)F`, the t1/2 in series [1] turned out to be 1.1 min. Moreover, in series [2], the solubility at 0.25 h is above 10000 µg/mL. In addition, in series [3], the Stability result is listed as “Stable”.

For `N=C(N)NCC(=O)N1C(=O)NC(c2ccccc2)(c2ccccc2)C1=O.O=C(O)C(F)(F)F`, the t1/2 in series [4] was found to be 13 min. The amount in solution in series [2] (solubility at 0.25 h) came to 10200 µg/mL. Further, the Stability entry in series [3] is “Stable”.

Take `C=C[C@@H]1CN2CC[C@H]1C[C@H]2[C@H](OC(=O)CNC(=N)N)c1ccnc2ccc(OC)cc12.O=C(O)C(F)(F)F`: in series [1], the t1/2 is below 1 min.

As to `C[C@H](NC(=N)N)C(=O)Nc1ccc(S(=O)(=O)Nc2nccs2)cc1.O=C(O)C(F)(F)F`, the t1/2 in series [5] worked out at 40 min. Moreover, the concentration in solution in series [2] (solubility at 0.25 h) was 7100 µg/mL. The Stability entry in series [3] was “Stable”.

Consider `Nc1ccc(S(=O)(=O)Nc2nccs2)cc1.O=C(O)C(F)(F)F`, for which, in series [2], the concentration in solution (solubility at 0.25 h) was 1.4 µg/mL.

For `CN(CC(=O)N1C(=O)NC(c2ccccc2)(c2ccccc2)C1=O)C(=N)N.O=C(O)C(F)(F)F`, the t1/2 in series [4] came out at 0.78 min.

Consider `C=C[C@@H]1CN2CC[C@H]1C[C@H]2[C@H](OC(=O)CCCN)c1ccnc2ccc(OC)cc12.O=C(O)C(F)(F)F`, for which, in series [6], the Drug metabolism result is reported as “tde”. In series [1], the t1/2 worked out at 102 min.

On to `N=C(N)NCC(=O)Nc1nc2ccccc2[nH]1.O=C(O)C(F)(F)F`, for which the t1/2 in series [7] is reported as 38 min.

Consider `C[C@H](NC(=N)N)C(=O)N1C(=O)NC(c2ccccc2)(c2ccccc2)C1=O.O=C(O)C(F)(F)F`, for which the t1/2 in series [4] amounted to 1.1 min.

In turn, `O=C1NC(=O)C(c2ccccc2)(c2ccccc2)N1` [PHENYTOIN] yielded a solubility at 0.25 h in series [2] of 6.3 µg/mL (≈ 25 µM).

On to `CC(C)c1nc(CN(C)C(=O)N[C@H](C(=O)N[C@@H](Cc2ccccc2)C[C@H](O)[C@H](Cc2ccccc2)NC(=O)OCc2cncs2)C(C)C)cs1` [RITONAVIR], for which, in series [8], the t1/2 was 42 h.
